What all share (type): functional
The test system of assay [1] is Botrytis cinerea. In words: Fungicidal activity against Botryotinia fuckeliana at 250 ppm relative to control.
Assay [2] deals with Puccinia recondita. In words: Fungicidal activity against Puccinia recondita at 250 ppm relative to control.
Assay [3] deals with Rhizoctonia solani. In words: Fungicidal activity against Rhizoctonia solani at 250 ppm relative to control.
For assay [4], the system named is Blumeria graminis. In words: Fungicidal activity against Blumeria graminis at 250 ppm relative to control.
In assay [5] the test system is Phytophthora infestans. Put plainly: Fungicidal activity against Phytophthora infestans at 250 ppm relative to control.
Assay [6] deals with Pyricularia oryzae. In words: Fungicidal activity against Magnaporthe oryzae at 250 ppm relative to control.

Regarding `Cc1c(/C=N/Nc2ccc(Cl)cc2)no[n+]1[O-]`, the Activity in assay [1] is 71%; in assay [2], 67%; in assay [3] it was 37%; in assay [4], 34%; in assay [5], 45%; in assay [6], 0%.

Regarding `Cc1ccc(-c2no[n+]([O-])c2-c2ccc(C)s2)s1` [3,4-DI-(5-METHYLTHIOPHEN-2-YL)FUROXAN], the Activity in assay [1] is on record as 0%; in assay [2] it was 0%; in assay [3], 5%; in assay [4] it was 17%; in assay [5], 33%; in assay [6], 38%.

As to `Cc1c(/C=N/Nc2ccccc2)no[n+]1[O-]`, the Activity in assay [1] was determined as 43%; in assay [2], 60%; in assay [3], 0%; in assay [4], 53%; in assay [5], 36%; in assay [6], 21%.

For the compound `[O-][n+]1onc(-c2ccc3ccccc3c2)c1-c1ccc2ccccc2c1` [3,4-DI(2-NAPHTHYL)FUROXAN], the Activity in assay [1] was found to be 51%; in assay [2] it was 0%; in assay [3] it was 10%; in assay [4] it was 73%; in assay [5] it was 14%; in assay [6] it was 60%.

As for `[O-][n+]1onc(-c2ccc(Cl)cc2)c1-c1ccc(Cl)cc1` [3,4-DI(4-CHLOROPHENYL)FUROXAN], the Activity in assay [1] amounted to 30%; in assay [2], 87%; in assay [3], 35%; in assay [4], 9%; in assay [5], 28%; in assay [6] it was 14%.

With `[O-][n+]1onc(-c2ccccc2C(F)(F)F)c1-c1ccccc1C(F)(F)F` [3,4-DI-(2-(TRIFLUOROMETHYL)PHENYL)FUROXAN], the Activity in assay [1] turned out to be 2%; in assay [2], 0%; in assay [3] it was 6%; in assay [4], 14%; in assay [5] it was 0%; in assay [6], 0%.

As to `Cc1c(/C=N/c2ccc(Cl)cc2)no[n+]1[O-]`, the Activity in assay [1] is listed as 52%; in assay [2] it was 67%; in assay [3], 0%; in assay [4], 53%; in assay [5] it was 77%; in assay [6] it was 29%.

Take `Cc1c(Cn2cncn2)no[n+]1[O-]` [3-METHYL-4-[(1,2,4-TRIAZOL-1-YL)METHYL]FUROXAN]: the Activity is listed as 8% in assay [1]; 0% in assay [2]; 0% in assay [3]; 25% in assay [4]; 11% in assay [5]; 4% in assay [6].

As for `[O-][n+]1onc(-c2cccnc2Cl)c1-c1cccnc1Cl` [3,4-DI-(2-CHLOROPYRIDIN-3-YL)FUROXAN], the Activity is listed as 0% in assay [1]; 10% in assay [2]; 11% in assay [3]; 0% in assay [4]; 27% in assay [5]; 19% in assay [6].

Consider `Cc1ccc(/N=C/c2no[n+]([O-])c2C)cc1C`, for which the Activity in assay [1] is 33%; in assay [2], 0%; in assay [3], 24%; in assay [4] it was 21%; in assay [5], 53%; in assay [6] it was 11%.

As to `COc1ccc(C(O)c2no[n+]([O-])c2C)cc1` (stereo not given) [4-[HYDROXY(4-METHOXYPHENYL)METHYL]-3-METHYLFUROXAN], the Activity was determined as 17% in assay [1]; 0% in assay [2]; 5% in assay [3]; 0% in assay [4]; 19% in assay [5]; 4% in assay [6].

As to `[O-][n+]1onc(-c2c(Cl)cccc2Cl)c1-c1c(Cl)cccc1Cl` [3,4-DI-(2,6-DICHLOROPHENYL)FUROXAN], the Activity in assay [1] came out at 0%; in assay [2], 0%; in assay [3] it was 0%; in assay [4] it was 0%; in assay [5], 27%; in assay [6], 41%.

Regarding `[O-][n+]1onc(-c2ccc(Cl)cc2Cl)c1-c1ccc(Cl)cc1Cl` [3,4-DI-(2,4-DICHLOROPHENYL)FUROXAN], the Activity amounted to 0% in assay [1]; 0% in assay [2]; 16% in assay [3]; 0% in assay [4]; 7% in assay [5]; 38% in assay [6].

Turning to `[O-][n+]1onc(-c2ccccc2Cl)c1-c1ccccc1Cl` [3,4-DI-(2-CHLOROPHENYL)FUROXAN], the Activity in assay [1] came to 0%; in assay [2], 10%; in assay [3], 26%; in assay [4] it was 33%; in assay [5], 20%; in assay [6] it was 13%.

Regarding `Cc1c(C(Cl)c2ccc(Cl)cc2)no[n+]1[O-]` (stereo not given) [4-[CHLORO(4-CHLOROPHENYL)METHYL]-3-METHYLFUROXAN], the Activity is given as 0% in assay [1]; 0% in assay [2]; 0% in assay [3]; 8% in assay [4]; 0% in assay [5]; 21% in assay [6].

For `Cc1c(C(O)c2ccc(Cl)cc2)no[n+]1[O-]` (stereo not given) [4-[(4-CHLOROPHENYL)HYDROXYMETHYL]-3-METHYLFUROXAN], the Activity in assay [1] was determined as 25%; in assay [2] it was 0%; in assay [3] it was 0%; in assay [4] it was 39%; in assay [5], 20%; in assay [6], 0%.

For `[O-][n+]1onc(-c2ccccc2F)c1-c1ccccc1F` [3,4-DI-(2-FLUOROPHENYL)FUROXAN], the Activity in assay [1] worked out at 0%; in assay [2] it was 0%; in assay [3], 0%; in assay [4] it was 0%; in assay [5], 0%; in assay [6], 6%.

Take `Cc1c(/C=N/c2ccccc2)no[n+]1[O-]`: the Activity in assay [1] turned out to be 62%; in assay [2], 17%; in assay [3], 5%; in assay [4] it was 15%; in assay [5] it was 73%; in assay [6] it was 7%.

For `Cc1c(C(c2ccc(Cl)cc2)n2cncn2)no[n+]1[O-]` (stereo not given) [4-[(4-CHLOROPHENYL)(1,2,4-TRIAZOL-1-YL)METHYL]-3-METHYLFUROXAN], the Activity is 0% in assay [1]; 0% in assay [2]; 0% in assay [3]; 25% in assay [4]; 37% in assay [5]; 16% in assay [6].

In the case of `[O-][n+]1onc(-c2ccc(C(F)(F)F)cc2)c1-c1ccc(C(F)(F)F)cc1` [3,4-DI-(4-(TRIFLUOROMETHYL)PHENYL)FUROXAN], the Activity was determined as 0% in assay [1]; 0% in assay [2]; 11% in assay [3]; 17% in assay [4]; 53% in assay [5]; 6% in assay [6].

The values are drawn from ChEMBL document CHEMBL3046398, “Synthesis and Antifungal Activities of Furoxan Derivatives Designed as Novel Fungicide” (1998).
